Key:
spores = conditions: prior art; cited from earlier work
[1] = tested on: Bacillus subtilis ATCC 6633; experiment: Concentration test spores of Bacillus subtilis (method B), with and without lysozyme; assay type: cell-based; conditions: use concentration of 0.001% (Figure 2)
Experimental: • fixed pipettes 1 ml; 500 µl, and 100 µl • sterile glass pipettes 10 ml • sterile spatulas • sterile Schott bottles • water bath 30°C • CSA-agar + TLSH (Tween 80 3%; lecithin 0.3%; saponin 3%, histidine 0.1%) • Bacillus subtilis ATCC 6633 stored in a) H2O or b) ethanol
Spore samples are provided commercially, sometimes as ethanolic solution (40% ethanol in water).
Germination medium: + TLSH:
The germ count of the ordered spore solution is ascertained prior to the start of the experiment by means of plating out and counting and, if appropriate, the spore suspension is diluted. On the day of the experiment, a starting germ count (SGC) is again generated from the spore suspension used. By means of spore counting under the microscope in a Helber chamber, a comparison is drawn between spores which are actually present and the number of germinating spores. The starting spore count should be ca. 1 × 10^7 CFU/ml. With the help of the malachite green coloration, adequate sporulation of the spore suspension used was verified by means of light microscopy.
Samples are taken regularly over several weeks. The experimental solutions stand in the dark at room temperature during the action times.
In each case 50 ml per solution to be investigated are pipetted into a sterile Schott bottle, inoculated with 50 µl of spore suspension and incubated at room temperature. […]

Compound | germination of spores (spores) | killing of spores (spores) | effect against B. subtilis ATCC 6633 [1] | time after which the effect can be detected [1]
CCCCCCCCCC[N+](C)(C)CCCCCCCCCC.[Cl-] [didecyldimethylammonium chloride] | prevent the germination of spores | do not kill them | – | –
CCCCCCCCN=c1ccn(CCCCCCCCCCn2ccc(=NCCCCCCCC)cc2)cc1.Cl.Cl [octenidine, N,N'-(1,10-decanediyldi-1[4H]-pyridinyl-4-ylidene)bis(1-octanamine) dihydrochloride] | – | – | effective | after just one day
benzalkonium chloride | prevent the germination of spores | spores are not killed | – | –

From patent EP2532242A1, “Use of bispyridiniumalkanes for killing spores” (L'AIR LIQUIDE, SOCIETE ANONYME POUR L'ETUDE ET …, priority 2011, dated 2012)
